According to paper PMC13576449, “Small-Molecule Activators of PRMT1: Discovery, SAR Analyses, and Proapoptotic Effects in Pancreatic Cancer Cells” (Journal of Medicinal Chemistry, 2026):

Assays:
Assay type in all cases: biochemical
FLAG-tagged PRMT4 = target: T1, FLAG-tagged PRMT4 (Mus musculus, UniProt Q9WVG6); assay: Fluorescence-based in vitro PRMT assay (F-PRMT assay), PRMT4; details: Table 1, 100 μM compound, n = 3; for Experimental result (PRMT4): 2 μM PRMT, vs solvent control = 100%, racemates used; for Efficacy ±Δ% (PRMT4): mean % difference of activity vs solvent control (100%), - inhibition, + activation
T1 construct: Full-length FLAG-tagged PRMT protein; made in house; host or cells: Sf9 insect cells (baculovirus)
T1 sequence (Q9WVG6 1-608): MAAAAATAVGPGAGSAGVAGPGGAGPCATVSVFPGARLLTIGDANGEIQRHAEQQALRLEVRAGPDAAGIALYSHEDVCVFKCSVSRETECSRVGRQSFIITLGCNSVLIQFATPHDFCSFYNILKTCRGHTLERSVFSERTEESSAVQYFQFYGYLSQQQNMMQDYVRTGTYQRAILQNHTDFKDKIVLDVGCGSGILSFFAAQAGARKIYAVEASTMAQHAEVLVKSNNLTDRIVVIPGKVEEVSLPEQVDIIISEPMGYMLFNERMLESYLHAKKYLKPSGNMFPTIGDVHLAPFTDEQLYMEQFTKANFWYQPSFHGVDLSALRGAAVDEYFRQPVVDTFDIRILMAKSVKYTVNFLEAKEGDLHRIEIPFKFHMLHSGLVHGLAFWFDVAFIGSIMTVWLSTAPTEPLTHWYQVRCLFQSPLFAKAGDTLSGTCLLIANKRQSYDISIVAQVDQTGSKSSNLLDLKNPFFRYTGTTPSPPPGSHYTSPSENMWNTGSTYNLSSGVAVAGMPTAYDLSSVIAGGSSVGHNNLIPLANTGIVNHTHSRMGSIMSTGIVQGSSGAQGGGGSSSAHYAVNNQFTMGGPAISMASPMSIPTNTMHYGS
Source text: (§1) To evaluate the effects of the selected candidate molecules on the catalytic activity of type I enzymes, we employed a quantitative fluorescence-based in vitro PRMT activity (F-PRMT) assay using recombinant FLAG-tagged PRMT proteins expressed and affinity-purified from baculovirus-infected Sf9 cells (SI Figure S1, SI Figure S2A).
(§2) Human cell lines (PaTu8988T, PANC-1) were obtained from ATCC (American Type Culture Collection) and cultured in DMEM supplemented with 10% fetal calf serum (FCS, Gibco/BRL), 1% penicillin/streptomycin at 37 °C and 5% CO2. […] For PRMT1 inhibition, cells were treated with type I PRMT inhibitor MS023 hydrochloride (Biomol). For induction of genotoxic stress, cells were treated with gemcitabine (LC Laboratories). […] The following plasmids were used: pFASTBAC-FLAG-rat PRMT1, pFASTBAC-FLAG-mouse PRMT4, and pGEX-GAR. The complete ORFs of human PRMT3 and PRMT6 were inserted into the pFASTBAC HT-3xFLAG B vector via BamHI/HindIII and BamHI/XhoI sites, respectively.
(§3) For PRMT protein expression in insect cells, recombinant baculovirus (bacmid) was generated using the Bac-to-Bac baculovirus system (Invitrogen). Sf9 cells were transfected with bacmid DNA using X-tremeGENE HP DNA transfection reagent (Sigma-Aldrich) according to the manufacturer's instructions. After 3–5 days, supernatants were collected, filtered, and used to infect Sf9 cells to amplify the virus. After 2 rounds of virus amplification and estimation of the final P3 virus titer, the P3 virus (2–5 μL/10^6 cells) was applied for large-scale infection of 200 × 10^6 Sf9 cells in suspension culture at a density of 1 × 10^6 cells/mL. Cells were harvested 5–6 days post-infection by centrifugation at 500 g for 5 min at room temperature. Protein purification from baculovirus-infected Sf9 cells was performed as previously described. , Cells were lysed in BC buffer (20 mM HEPES pH 7.9, 250 mM NaCl, 10% (v/v) glycerin, 0.4 mM EDTA, 1 mM DTT) containing a protease inhibitor cocktail (Roche) by 3 freeze-thaw cycles. After centrifugation at 11,000 rpm (Sorval SS34 rotor) and 4 °C for 1 h, the supernatant (whole cell protein extract) was incubated with anti-FLAG M2 Affinity Gel (Cytiva) at 4 °C and under agitation for 4 h. Subsequently, beads were washed in BC buffer containing various NaCl concentrations (once in BC with 1 M NaCl, twice in BC with 500 mM NaCl, twice in BC with 250 mM NaCl and twice in BC with 100 mM NaCl). FLAG-tagged proteins were either maintained bead-bound as a 50% (v/v) slurry in BC buffer with 100 mM NaCl and stored at −80 °C or were eluted in the appropriate elution buffer (depending on the subsequent assay) containing 0.25 mg/mL 3xFLAG peptides (Sigma-Aldrich) at 4 °C for 30–45 min. To remove the FLAG-peptides from the eluate, dialysis was performed in elution buffer containing 10% (v/v) glycerol at 4 °C for 4–6 h using Slide-A-Lyzer Dialysis Devices (Thermo Fisher Scientific) according to the manufacturer’s recommendations.
(§4) In the first step, the fluorogenic substrate Nα-Benzoyl-L-arginine-7-amido-4-methylcoumarin (Bz-Arg-AMC, Sigma-Aldrich) undergoes methylation by PRMTs upon the addition of the cofactor SAM. In the second reaction step, trypsin cleaves the nonmethylated substrate, leading to the generation of the 7-amino-4-methylcoumarin product, which can be quantified by subsequent fluorescence measurement (excitation: 355 nm, emission: 460 nm). The first reaction was conducted with bead-bound PRMTs at a total volume of 100 μL. Each condition was performed as a technical triplicate to determine the mean and the standard deviation. […] For the negative controls, SAM was substituted with assay buffer. The incubation was continued at 37 °C and under agitation (1,000 rpm) for a duration of 2 h.

FLAG-tagged PRMT6 = target: T2, FLAG-tagged PRMT6 (Homo sapiens, UniProt Q96LA8); assay: Fluorescence-based in vitro PRMT assay (F-PRMT assay), PRMT6; details: Table 1, 100 μM compound, n = 3; for Experimental result (PRMT6): 2 μM PRMT, vs solvent control = 100%, racemates used; for Efficacy ±Δ% (PRMT6): mean % difference of activity vs solvent control (100%), - inhibition, + activation
T2 construct: The complete ORFs of human PRMT3 and PRMT6 were inserted; made in house; host or cells: Sf9 insect cells (baculovirus)
Summary of the method: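 Baculovirus/Sf9-expressed FLAG-PRMTs (human PRMT3, PRMT6; mouse PRMT4), anti-FLAG purified and used bead-bound, methylated Bz-Arg-AMC with SAM for 2 h at 37 °C, 1,000 rpm. Technical triplicates; no-SAM negative controls.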

FLAG-tagged PRMT3 = target: T3, FLAG-tagged PRMT3 (Homo sapiens, UniProt O60678); assay: Fluorescence-based in vitro PRMT assay (F-PRMT assay), PRMT3; details: Table 1; 100 μM compound, 2 μM PRMT, vs solvent control = 100%, n = 3; racemates used
T3 construct: The complete ORFs of human PRMT3 and PRMT6 were inserted; made in house; host or cells: Sf9 insect cells (baculovirus)
Source text: as §1, §2, §3, §4

FLAG-tagged PRMT1 = target: T4, FLAG-tagged PRMT1 (Rattus norvegicus, UniProt Q63009); assay: Fluorescence-based in vitro PRMT assay (F-PRMT assay), PRMT1; details: Table 1, 100 μM compound, n = 3; for Experimental result (PRMT1): 2 μM PRMT, vs solvent control = 100%, racemates used; for Efficacy ±Δ% (PRMT1): mean % difference of activity vs solvent control (100%), - inhibition, + activation
T4 construct: Full-length FLAG-tagged PRMT protein; made in house; host or cells: Sf9 insect cells (baculovirus)
T4 sequence (Q63009 whole entry): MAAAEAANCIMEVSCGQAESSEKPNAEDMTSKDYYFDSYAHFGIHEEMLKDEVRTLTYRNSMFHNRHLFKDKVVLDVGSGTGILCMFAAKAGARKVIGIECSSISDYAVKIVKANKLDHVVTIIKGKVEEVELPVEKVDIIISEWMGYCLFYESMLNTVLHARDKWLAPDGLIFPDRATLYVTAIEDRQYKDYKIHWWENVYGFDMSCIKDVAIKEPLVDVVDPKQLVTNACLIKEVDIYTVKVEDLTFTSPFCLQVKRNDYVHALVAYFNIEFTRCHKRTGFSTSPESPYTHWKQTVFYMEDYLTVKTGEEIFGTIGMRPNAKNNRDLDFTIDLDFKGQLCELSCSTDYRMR

T3 sequence (O60678 whole entry): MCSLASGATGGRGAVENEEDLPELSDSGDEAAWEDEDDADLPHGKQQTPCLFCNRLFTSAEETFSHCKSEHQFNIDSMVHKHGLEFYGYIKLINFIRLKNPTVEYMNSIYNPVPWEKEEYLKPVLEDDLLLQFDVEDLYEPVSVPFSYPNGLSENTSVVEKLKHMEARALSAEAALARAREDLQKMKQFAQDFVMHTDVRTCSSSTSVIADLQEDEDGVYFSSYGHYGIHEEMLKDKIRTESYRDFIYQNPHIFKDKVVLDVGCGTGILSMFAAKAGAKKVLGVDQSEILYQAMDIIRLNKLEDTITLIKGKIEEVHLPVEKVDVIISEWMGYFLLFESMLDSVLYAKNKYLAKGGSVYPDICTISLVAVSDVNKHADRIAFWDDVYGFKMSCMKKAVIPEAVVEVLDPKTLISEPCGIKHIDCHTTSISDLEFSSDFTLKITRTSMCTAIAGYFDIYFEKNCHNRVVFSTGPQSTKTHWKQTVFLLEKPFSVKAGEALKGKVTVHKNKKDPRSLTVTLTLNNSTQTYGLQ
T2 sequence (Q96LA8 whole entry): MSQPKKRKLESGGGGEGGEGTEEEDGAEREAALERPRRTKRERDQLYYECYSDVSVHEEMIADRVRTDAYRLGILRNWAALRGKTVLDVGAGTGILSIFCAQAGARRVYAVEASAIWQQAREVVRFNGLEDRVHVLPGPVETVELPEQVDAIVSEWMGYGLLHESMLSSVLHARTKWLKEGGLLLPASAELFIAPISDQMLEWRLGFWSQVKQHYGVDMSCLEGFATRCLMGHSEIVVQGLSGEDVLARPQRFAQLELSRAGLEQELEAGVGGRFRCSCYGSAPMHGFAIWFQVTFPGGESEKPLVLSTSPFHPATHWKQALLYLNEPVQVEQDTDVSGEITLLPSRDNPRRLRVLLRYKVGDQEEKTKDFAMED

Row | Structure (SMILES) | Experimental result (PRMT4) (FLAG-tagged PRMT4) | Experimental result (PRMT6) (FLAG-tagged PRMT6) | Experimental result (PRMT3) (FLAG-tagged PRMT3) | Experimental result (PRMT1) (FLAG-tagged PRMT1) | Efficacy ±Δ% (PRMT1) (FLAG-tagged PRMT1) | Efficacy ±Δ% (PRMT4) (FLAG-tagged PRMT4) | Efficacy ±Δ% (PRMT6) (FLAG-tagged PRMT6)
1 | CNC[C@H](O)COc1ccc([N+](=O)[O-])cc1Cl (racemic) [Compound K001JS007] | PRMT4 i | PRMT6 i | PRMT3 n.e. (Compounds, which did not significantly affect the catalytic activity (less than ±6% change or not significant p-value), are marked with [drawing 8] (no effect)) | PRMT1 i | -30% | – | –
2 | CNCCCNCCc1ccccc1 [Compound K001JS006] | PRMT4 i | PRMT6 i | PRMT3 n.e. (Compounds, which did not significantly affect the catalytic activity (less than ±6% change or not significant p-value), are marked with [drawing 8] (no effect)) | PRMT1 n.e. (Compounds, which did not significantly affect the catalytic activity (less than ±6% change or not significant p-value), are marked with [drawing 8] (no effect)) | – | -10% | –
3 | N=C(N)NCCSCc1cccc2ccccc12 [Compound K001JS010] | PRMT4 n.e. (Compounds, which did not significantly affect the catalytic activity (less than ±6% change or not significant p-value), are marked with [drawing 8] (no effect)) | PRMT6 i | PRMT3 n.e. (Compounds, which did not significantly affect the catalytic activity (less than ±6% change or not significant p-value), are marked with [drawing 8] (no effect)) | PRMT1 i | -20% | – | –
4 | CNCc1cn(CC2CCN(c3ccc(C(C)=O)cn3)CC2)nn1 [Compound K002JS003] | PRMT4 n.e. (Compounds, which did not significantly affect the catalytic activity (less than ±6% change or not significant p-value), are marked with [drawing 8] (no effect)) | PRMT6 i | PRMT3 n.e. (Compounds, which did not significantly affect the catalytic activity (less than ±6% change or not significant p-value), are marked with [drawing 8] (no effect)) | PRMT1 n.e. (Compounds, which did not significantly affect the catalytic activity (less than ±6% change or not significant p-value), are marked with [drawing 8] (no effect)) | – | – | –
5 | NCC(=O)Nc1ccc(NC(=O)c2ccco2)cc1 [Compound K002JS013] | PRMT4 i | PRMT6 i | PRMT3 n.e. (Compounds, which did not significantly affect the catalytic activity (less than ±6% change or not significant p-value), are marked with [drawing 8] (no effect)) | PRMT1 n.e. (Compounds, which did not significantly affect the catalytic activity (less than ±6% change or not significant p-value), are marked with [drawing 8] (no effect)) | – | -50% | -8%
6 | O=C(CC1COCCN1)N1CCC(N2CCc3ccccc3C2)CC1 (stereo not drawn) [Compound K002JS014] | PRMT4 n.e. (Compounds, which did not significantly affect the catalytic activity (less than ±6% change or not significant p-value), are marked with [drawing 8] (no effect)) | PRMT6 i | PRMT3 n.e. (Compounds, which did not significantly affect the catalytic activity (less than ±6% change or not significant p-value), are marked with [drawing 8] (no effect)) | PRMT1 n.e. (Compounds, which did not significantly affect the catalytic activity (less than ±6% change or not significant p-value), are marked with [drawing 8] (no effect)) | – | – | -8%
